The results in this text go back to patent publication US20110053916A1 (Vertex Pharmaceuticals Incorporated, priority 2009, published 2011).

SMILES strings stand for the structures.

T1 sequence (P9WI81 whole entry): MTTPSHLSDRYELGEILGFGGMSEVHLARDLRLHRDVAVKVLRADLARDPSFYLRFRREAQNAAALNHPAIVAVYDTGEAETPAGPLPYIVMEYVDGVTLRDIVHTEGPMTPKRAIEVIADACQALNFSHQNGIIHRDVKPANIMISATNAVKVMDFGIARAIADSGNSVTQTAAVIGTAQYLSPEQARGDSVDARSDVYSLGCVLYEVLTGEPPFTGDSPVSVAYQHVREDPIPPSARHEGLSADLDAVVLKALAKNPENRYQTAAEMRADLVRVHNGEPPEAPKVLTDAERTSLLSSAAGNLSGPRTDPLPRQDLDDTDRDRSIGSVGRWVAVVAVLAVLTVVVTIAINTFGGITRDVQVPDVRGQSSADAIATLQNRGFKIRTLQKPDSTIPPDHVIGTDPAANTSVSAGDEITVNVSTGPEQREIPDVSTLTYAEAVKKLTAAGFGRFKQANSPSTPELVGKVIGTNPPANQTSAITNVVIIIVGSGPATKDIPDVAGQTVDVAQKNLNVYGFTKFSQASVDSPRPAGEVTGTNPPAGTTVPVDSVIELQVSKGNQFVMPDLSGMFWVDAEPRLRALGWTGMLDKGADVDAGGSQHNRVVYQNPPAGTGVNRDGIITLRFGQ

One assay addresses T1, PknB (Mycobacterium tuberculosis, UniProt P9WI81).
T1 construct: made in house
In words: biochemical. Details: species or system M. tuberculosis. To be noted: 3 nM PknB, 6 uM GarA, 3 μM ATP, 30 min; competitive tight-binding fit; several symbols in a cell = repeat determinations.
Take `O=S(=O)(NCCO)c1ccc(-c2ncc(Cl)c(Nc3cc(C4CC4)[nH]n3)n2)cc1` [Compound 61, 4-[5-chloro-4-[(5-cyclopropyl-1H-pyrazol-3-yl)amino]-pyrimidin-2-yl]-N-(2-hydroxyethyl)benzenesulfonamide]: the “Ki Values” is recorded as “A, C, D”.

As for `N#CCc1ccc(Nc2ncc(Cl)c(Nc3cc(C4CC4)[nH]n3)n2)cc1` [Compound 59, 2-[4-[[5-chloro-4-[(5-cyclopropyl-1H-pyrazol-3-yl)amino]-pyrimidin-2-yl]amino]phenyl]acetonitrile], the “Ki Values” is recorded as “B**, B*, B*”.

With `CCc1cnc(N2CCC(N3CCCCC3)CC2)nc1Nc1cc(C2CC2)[nH]n1` [Compound 44, N-(5-cyclopropyl-1H-pyrazol-3-yl)-5-ethyl-2-[4-(1-piperidyl)-1-piperidyl]-pyrimidin-4-amine], the “Ki Values” is given as “C, D”.

For `C#Cc1cnc(N2CC[C@@H](NC(C)=O)C2)nc1Nc1cc(C2CC2)n[nH]1` [Compound 193, N-[1-[4-[(5-cyclopropyl-2H-pyrazol-3-yl)amino]-5-ethynyl-pyrimidin-2-yl]pyrrolidin-3-yl]acetamide], the “Ki Values” is reported as “B, C”.

Regarding `C#Cc1cnc(Nc2ccc(CC#N)cc2)nc1Nc1cc(C2CC2)[nH]n1` [Compound 101, 2-(4-(4-(5-Cyclopropyl-1H-pyrazol-3-ylamino)-5-ethynylpyrimidin-2-ylamino)phenyl)acetonitrile], the “Ki Values” is “A*, A*, A”.

On to `c1cc(Nc2cc(C3CC3)[nH]n2)nc(N2CCCCC2)n1` [Compound 64, N-(5-cyclopropyl-1H-pyrazol-3-yl)-2-(1-piperidyl)pyrimidin-4-amine], for which the “Ki Values” is on record as “A*, B**”.

As for `O=C(O)c1cccc(-c2ncc(Cl)c(Nc3cc(C4CC4)[nH]n3)n2)c1` [Compound 142, 3-[5-chloro-4-[(5-cyclopropyl-1H-pyrazol-3-yl)amino]-pyrimidin-2-yl]benzoic acid], the “Ki Values” is listed as “A*, A, B**, B**”.

Staying with this assay, now noted: 3 nM PknB, 6 uM GarA, 3 μM ATP, 30 min; competitive tight-binding fit; several symbols in a cell = repeat determinations; read-out: Ki Values.
For `N#Cc1ccc(-c2ncc(Cl)c(Nc3cc(C4CC4)[nH]n3)n2)s1` [Compound 140, 5-(5-chloro-4-(5-cyclopropyl-1H-pyrazol-3-ylamino)pyrimidin-2-yl)thiophene-2-carbonitrile], the Ki lay in the range of 10 to 50 nM.

For the molecule `NS(=O)(=O)c1ccc(-c2nc(CO)cc(Nc3cc(C4CC4)[nH]n3)n2)s1` [Compound 285, 5-[4-[(5-cyclopropyl-1H-pyrazol-3-yl)amino]-6-(hydroxymethyl)pyrimidin-2-yl]thiophene-2-sulfonamide], the inhibition constant (Ki) was in the range of 1 to 10 nM.

Take `N#Cc1cccc(Nc2ncc(Cl)c(Nc3cc(C4CC4)[nH]n3)n2)c1` [Compound 89, 3-[[5-chloro-4-[(5-cyclopropyl-1H-pyrazol-3-yl)amino]-pyrimidin-2-yl]amino]benzonitrile]: the Ki was in the range of 100 to 500 nM.

Regarding `CC(=O)NCCNS(=O)(=O)c1cccc(-c2ncc(Cl)c(Nc3cc(C4CC4)[nH]n3)n2)c1` [Compound 96, N-[2-[[3-[5-chloro-4-[(5-cyclopropyl-1H-pyrazol-3-yl)amino]-pyrimidin-2-yl]phenyl]sulfonylamino]ethyl]acetamide], the Ki was 10 to 50 nM.

On to `Clc1cnc(-c2ccccn2)nc1Nc1cc(C2CC2)[nH]n1` [Compound 182, 5-chloro-N-(5-cyclopropyl-1H-pyrazol-3-yl)-2-(pyridin-2-yl)pyrimidin-4-amine], for which the Ki fell in the range of 1000 to 2000 nM.

In the case of `Cc1cc(Nc2ccnc(Nc3ccc(S(N)(=O)=O)cc3)n2)[nH]n1` [Compound 76, 4-[[4-[(5-methyl-2H-pyrazol-3-yl)amino]pyrimidin-2-yl]amino]benzenesulfonamide], the Ki lay within 10 to 50 nM.

In the case of `COc1ccc(-c2ncc(Cl)c(Nc3cc(C4CC4)[nH]n3)n2)cc1S(N)(=O)=O` [Compound 161, 5-[5-chloro-4-[(5-cyclopropyl-1H-pyrazol-3-yl)amino]-pyrimidin-2-yl]-2-methoxy-benzenesulfonamide], the Ki lay within 50 to 100 nM.

Turning to `O=S(=O)(NCC(F)(F)F)c1ccc(-c2ncc(Cl)c(Nc3cc(C4CC4)[nH]n3)n2)s1` [Compound 158, 5-[5-chloro-4-[(5-cyclopropyl-1H-pyrazol-3-yl)amino]-pyrimidin-2-yl]-N-(2,2,2-trifluoroethyl)thiophene-2-sulfonamide], the Ki lay in the range of 10 to 50 nM.

With `CN(C)CCNS(=O)(=O)c1cccc(-c2ncc(Cl)c(Nc3cc(C4CC4)[nH]n3)n2)c1` [Compound 97, 3-[5-chloro-4-[(5-cyclopropyl-1H-pyrazol-3-yl)amino]-pyrimidin-2-yl]-N-(2-dimethylaminoethyl)benzenesulfonamide], the Ki was 10 to 50 nM.

With `c1ccc(-c2nccc(Nc3cc(C4CC4)n[nH]3)n2)cc1` [Compound 2, N-(5-cyclopropyl-2H-pyrazol-3-yl)-2-phenyl-pyrimidin-4-amine], the Ki lay in the range of 50 to 100 nM.

Consider `C#Cc1cnc(-c2ccc(CC#N)cc2)nc1Nc1cc(C2CC2)[nH]n1` [Compound 85, 2-(4-(4-(5-cyclopropyl-1H-pyrazol-3-ylamino)-5-ethynylpyrimidin-2-yl)phenyl)acetonitrile], for which the Ki is 10 to 50 nM.

Turning to `C#Cc1cnc(N2CCCCC2C(=O)OC)nc1Nc1cc(C2CC2)[nH]n1` (stereo not drawn) [Compound 244, methyl 1-[4-[(5-cyclopropyl-1H-pyrazol-3-yl)amino]-5-ethynyl-pyrimidin-2-yl]piperidine-2-carboxylate], the Ki is over 4000 nM.

With `COCc1cnc(N2CCC(N3CCCCC3)CC2)nc1Nc1cc(C2CC2)[nH]n1` [Compound 71, N-(5-cyclopropyl-1H-pyrazol-3-yl)-5-(methoxymethyl)-2-[4-(1-piperidyl)-1-piperidyl]-pyrimidin-4-amine], the Ki fell in the range of 1000 to 2000 nM.

In the case of `Clc1cnc(-c2cccs2)nc1Nc1cc(C2CC2)[nH]n1` [Compound 29, 5-chloro-N-(5-cyclopropyl-1H-pyrazol-3-yl)-2-(thiophen-2-yl)pyrimidin-4-amine], the Ki was 50 to 100 nM.

Regarding `CC(=O)c1ccc(-c2ncc(Cl)c(Nc3cc(C4CC4)[nH]n3)n2)o1` [Compound 288, 1-[5-[5-chloro-4-[(5-cyclopropyl-1H-pyrazol-3-yl)amino]-pyrimidin-2-yl]-2-furyl]ethanone], the Ki lay within 100 to 500 nM.

Consider `CC(=O)NCCNS(=O)(=O)c1ccc(-c2ncc(Cl)c(Nc3cc(C4CC4)[nH]n3)n2)s1` [Compound 118, N-(2-(5-(5-chloro-4-(5-cyclopropyl-1H-pyrazol-3-ylamino)pyrimidin-2-yl)thiophene-2-sulfonamido)ethyl)acetamide], for which the Ki lay in the range of 10 to 50 nM.

As to `CC(=O)OCCc1cnc(-c2ccc(S(=O)(=O)NC(C)(C)C)s2)nc1Nc1cc(C2CC2)[nH]n1` [Compound 309, 2-[4-[(5-cyclopropyl-1H-pyrazol-3-yl)amino]-2-[5-(tert-butylsulfamoyl)-2-thienyl]-pyrimidin-5-yl]ethyl acetate], the Ki lay within 100 to 500 nM.

Take `NS(=O)(=O)c1ccc(-c2ncc(Cl)c(Nc3cc(-c4ccccc4)[nH]n3)n2)s1` [Compound 234, 5-[5-chloro-4-[(5-phenyl-1H-pyrazol-3-yl)amino]-pyrimidin-2-yl]thiophene-2-sulfonamide]: the Ki is over 4000 nM.

For the molecule `NS(=O)(=O)c1cc(-c2nccc(Nc3cc(C4CC4)[nH]n3)n2)ccc1O` [Compound 318, 5-[4-[(5-cyclopropyl-1H-pyrazol-3-yl)amino]pyrimidin-2-yl]-2-hydroxy-benzenesulfonamide], the Ki fell in the range of 10 to 50 nM.

In the case of `COC(=O)CC1c2cnc(-c3ccccc3)nc2Nc2cc(C3CC3)nn21` (stereo not drawn) [Compound 49, methyl 2-(cyclopropyl-phenyl-BLAHyl)acetate], the Ki is over 4000 nM.

As to `NS(=O)(=O)c1cccc(-c2ncc(F)c(Nc3cc(C4CC4)[nH]n3)n2)c1` [Compound 35, 3-[4-[(5-cyclopropyl-1H-pyrazol-3-yl)amino]-5-fluoro-pyrimidin-2-yl]benzenesulfonamide], the Ki was 10 to 50 nM.

`NCCNS(=O)(=O)c1ccc(-c2ncc(Cl)c(Nc3cc(C4CC4)[nH]n3)n2)s1` [Compound 75, N-(2-aminoethyl)-5-(5-chloro-4-(5-cyclopropyl-1H-pyrazol-3-ylamino)pyrimidin-2-yl)thiophene-2-sulfonamide]: the Ki fell in the range of 1 to 10 nM.

In the case of `COCc1cnc(N2CCCCC2)nc1Nc1cc(C2CC2)[nH]n1` [Compound 70, N-(5-cyclopropyl-1H-pyrazol-3-yl)-5-(methoxymethyl)-2-(1-piperidyl)pyrimidin-4-amine], the Ki is over 4000 nM.

`CN1CCN(c2cc(Nc3cc(C4CC4)[nH]n3)nc(-c3ccc(S(N)(=O)=O)s3)n2)CC1` [Compound 325, 5-[4-[(5-cyclopropyl-1H-pyrazol-3-yl)amino]-6-(4-methylpiperazin-1-yl)-pyrimidin-2-yl]thiophene-2-sulfonamide]: the inhibition constant (Ki) lay in the range of 100 to 500 nM.

As for `CC(C)(C)NS(=O)(=O)c1ccc(-c2ccc([N+](=O)[O-])c(Nc3cc(C4CC4)n[nH]3)n2)s1` [Compound 274, 5-[6-[(5-cyclopropyl-2H-pyrazol-3-yl)amino]-5-nitro-2-pyridyl]-N-tert-butyl-thiophene-2-sulfonamide], the Ki was in the range of 50 to 100 nM.

For the molecule `C#Cc1cnc(N2CC[C@H](N)C2)nc1Nc1cc(C2CC2)n[nH]1` [Compound 187, 2-(3-aminopyrrolidin-1-yl)-N-(5-cyclopropyl-2H-pyrazol-3-yl)-5-ethynyl-pyrimidin-4-amine], the Ki is over 4000 nM.

`NS(=O)(=O)c1ccc(-c2ncc(CCCO)c(Nc3cc(C4CC4)[nH]n3)n2)s1` [Compound 319, 5-[4-[(5-cyclopropyl-1H-pyrazol-3-yl)amino]-5-(3-hydroxypropyl)pyrimidin-2-yl]thiophene-2-sulfonamide]: the Ki was in the range of 1 to 10 nM.

Take `C#Cc1cnc(-c2ccc(CO)s2)nc1Nc1cc(C2CC2)[nH]n1` [Compound 196, (5-(4-(5-cyclopropyl-1H-pyrazol-3-ylamino)-5-ethynylpyrimidin-2-yl)thiophen-2-yl)methanol]: the Ki is 10 to 50 nM.

Consider `NS(=O)(=O)c1ccc(-c2ncc(C(=O)O)c(Nc3cc(C4CC4)[nH]n3)n2)s1` [Compound 179, 4-(5-cyclopropyl-1H-pyrazol-3-ylamino)-2-(5-sulfamoylthiophen-2-yl)pyrimidine-5-carboxylic acid], for which the inhibition constant (Ki) is 500 to 1000 nM.

As usually defined, the Ki is the equilibrium dissociation constant of an inhibitor or competing ligand from its target.
